Among the data in US20180057507A1, “INHIBITORS OF DUAL LEUCINE ZIPPER (DLK) KINASE FOR THE TREATMENT OF DISEASE” (Board of Regents, The University of Texas System, priority 2016, published 2018) are Kd and IC50 values, retold here.

Assay [1] has as its target T1, human DLK (Homo sapiens, UniProt Q12852).
T1 sequence (Q12852 1-859): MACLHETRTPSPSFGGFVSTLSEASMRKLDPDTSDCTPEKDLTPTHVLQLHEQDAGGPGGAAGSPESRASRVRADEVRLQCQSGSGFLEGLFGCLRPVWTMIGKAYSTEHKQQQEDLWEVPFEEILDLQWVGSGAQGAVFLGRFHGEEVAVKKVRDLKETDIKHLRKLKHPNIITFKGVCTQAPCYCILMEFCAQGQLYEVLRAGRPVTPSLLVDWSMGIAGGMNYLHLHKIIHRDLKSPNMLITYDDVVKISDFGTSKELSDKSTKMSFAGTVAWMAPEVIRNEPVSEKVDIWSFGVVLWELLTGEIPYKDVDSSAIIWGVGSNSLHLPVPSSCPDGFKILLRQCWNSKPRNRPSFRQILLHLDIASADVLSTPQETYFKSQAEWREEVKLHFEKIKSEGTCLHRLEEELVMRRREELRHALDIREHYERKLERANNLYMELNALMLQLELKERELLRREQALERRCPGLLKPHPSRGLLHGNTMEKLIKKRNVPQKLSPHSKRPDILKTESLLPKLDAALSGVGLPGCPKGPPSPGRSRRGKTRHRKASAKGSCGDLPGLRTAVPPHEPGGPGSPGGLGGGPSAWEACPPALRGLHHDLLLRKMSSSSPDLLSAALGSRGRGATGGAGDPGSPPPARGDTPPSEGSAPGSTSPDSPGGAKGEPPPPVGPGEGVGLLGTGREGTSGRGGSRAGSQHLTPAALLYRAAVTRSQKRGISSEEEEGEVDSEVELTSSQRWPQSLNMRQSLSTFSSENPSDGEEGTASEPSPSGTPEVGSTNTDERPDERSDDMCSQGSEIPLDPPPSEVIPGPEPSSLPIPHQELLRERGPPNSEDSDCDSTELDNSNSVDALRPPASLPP
Briefly: DLK Kd Determinations (KINOMEscan KdELECT, DiscoveRx). Set-up: full length of human DLK (amino acids 1-859); host or cells: transiently transfected HEK293 cells; unpurified extract. As to conditions: fusion protein of full length human DLK (amino acids 1-859) and NFkB DNA binding domain; qPCR readout; duplicate. Put shortly:
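Competition binding of full-length human DLK (aa 1-859)-NFkB DBD fusion, DNA-tagged, from HEK293 extracts against an immobilized ligand; 1 h at room temperature, 0.9% DMSO. Bead-bound kinase was quantified by qPCR. Kd came from an 11-point 3-fold series (top 30,000 nM), in duplicate, with Hill slope fixed at −1.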

In assay [2] the target is T1, human DLK. Briefly: Phospho-cJun Cellular Assay. In kind it is cell-based. Also noted: expressed in transfected cells. As to conditions: HEK293 cells stably transfected with Dox-inducible human DLK; p-cJun (Ser63); 5 h compound incubation. Put shortly: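 HEK293 cells with doxycycline-induced human DLK (induced 20 h; uninduced cells as negative control) treated with compound for 5 h at 37 °C. Phospho-cJun (Ser63) measured in lysates with detection-antibody kit; IC50 from variable-slope dose-response fit.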

For the compound `CC(C)c1nc(-c2cnc(N)c(C(F)(F)F)c2)cn1[C@H]1[C@@H]2CC(N3CCCOCC3)C[C@@H]21` (stereo partly drawn) [Example 130, 5-(1-(3-(1,4-oxazepan-4-yl)bicyclo[3.1.0]hexan-6-yl)-2-isopropyl-1H-imidazol-4-yl)-3-(trifluoromethyl)pyridin-2-amine], the equilibrium dissociation constant (Kd) in assay [1] worked out at 25 nM. This compound gave a 50% inhibitory concentration (IC50) in assay [2] of 1760 nM.
As to `CC(C)Cc1nc(-c2cnc(N)c(C(F)(F)F)c2)cn1[C@H]1[C@@H]2CC(N3CCN(C)CC3)C[C@@H]21` (single isomer, unassigned) [Example 146a, 5-(2-isobutyl-1-(3-(4-methylpiperazin-1-yl)bicyclo[3.1.0]hexan-6-yl)-1H-imidazol-4-yl)-3-(trifluoromethyl)pyridin-2-amine], the Kd in assay [1] was determined as 6.5 nM. Also, half-maximal inhibition in assay [2] (IC50) required 376 nM.
Turning to `CC(C)c1nc(-c2cnc(N)c(C(F)(F)F)c2)cn1C1CC1` [Example 6, 5-[1-cyclopropyl-2-(propan-2-yl)-1H-imidazol-4-yl]-3-(trifluoromethyl)pyridin-2-amine], binding in assay [1] was characterised by a dissociation constant (Kd) of 130 nM. In assay [2], this compound registered an IC50 of 3620 nM.
On to `Nc1ncc(-c2cn([C@H]3[C@@H]4CN(C5CCOCC5)C[C@@H]43)c(CC(F)(F)F)n2)cc1C(F)(F)F` [Example 119, 5-(1-((1R,5S,6s)-3-(tetrahydro-2H-pyran-4-yl)-3-azabicyclo[3.1.0]hexan-6-yl)-2-(2,2,2-trifluoroethyl)-1H-imidazol-4-yl)-3-(trifluoromethyl)pyridin-2-amine], for which binding in assay [1] was put at a Kd of 71 nM. In addition, the IC50 in assay [2] stood at 1850 nM.
In the same order, the values of `Nc1ncc(-c2cn([C@H]3[C@@H]4CC(N5CCCOCC5)C[C@@H]43)c(C3CC3)n2)cc1OC(F)(F)F` (stereo partly drawn) [Example 136, 5-(1-(3-(1,4-oxazepan-4-yl)bicyclo[3.1.0]hexan-6-yl)-2-cyclopropyl-1H-imidazol-4-yl)-3-(trifluoromethoxy)pyridin-2-amine] are 20 nM and 662 nM.
In the same order, the values of `Nc1ncc(-c2cn(C3CC4(CC(N5CCOCC5)C4)C3)c(C3CC3)n2)cc1OC(F)(F)F` (stereo not drawn) [Example 41, 5-(2-cyclopropyl-1-(6-morpholinospiro[3.3]heptan-2-yl)-1H-imidazol-4-yl)-3-(trifluoromethoxy)pyridin-2-amine] are 38 nM and 483 nM.
